In ChEMBL document CHEMBL1158011, “Five new flavone 5-O-glycosides from Lethedon tannaensis: lethedosides and lethediosides” (J Nat Prod, 1999):
Converted amounts (≈) assume the structure as drawn.

System: KB
Experiment: Cytotoxicity against human KB cells after 72 hrs by neutral red assay
Type: functional, cell-based

| Compound | IC50 [µg/mL] |
| --- | --- |
| COc1ccc(-c2cc(=O)c3c(O[C@@H]4O[C@H](CO[C@@H]5OC[C@@H](O)[C@H](O)[C@H]5O)[C@@H](O)[C@H](O)[C@H]4O)cc(OC)cc3o2)cc1 | > 100 |
| COc1cc(O[C@@H]2O[C@H](CO[C@@H]3OC[C@@H](O)[C@H](O)[C@H]3O)[C@@H](O)[C@H](O)[C@H]2O)c2c(=O)cc(-c3ccc(OC)c(OC)c3)oc2c1 [LETHEDIOSIDE A] | > 100 |
| COc1cc(O[C@@H]2O[C@H](CO[C@@H]3OC[C@@H](O)[C@H](O)[C@H]3O)[C@@H](O)[C@H](O)[C@H]2O)c2c(=O)cc(-c3cc(OC)c(OC)c(OC)c3)oc2c1 [LETHEDIOSIDE B] | 32 (≈ 49 µM) |
| COc1cc(O[C@@H]2O[C@H](CO)[C@@H](O)[C@H](O)[C@H]2O)c2c(=O)cc(-c3ccc(OC)c(OC)c3)oc2c1 [LETHEDOSIDE A] | > 100 |
| COc1cc(O[C@@H]2O[C@H](CO)[C@@H](O)[C@H](O)[C@H]2O)c2c(=O)cc(-c3cc(OC)c(OC)c(OC)c3)oc2c1 [LETHEDOSIDE B] | 37 (≈ 71.1 µM) |
| COc1cc(O[C@@H]2O[C@H](CO)[C@@H](O)[C@H](O)[C@H]2O)c2c(=O)cc(-c3cc(O)c(OC)c(OC)c3)oc2c1 [LETHEDOSIDE C] | 43 (≈ 84.9 µM) |
| COc1cc(O)c2c(=O)cc(-c3ccc(O)c(OC)c3)oc2c1 [VELUTIN] | 1.5 (≈ 4.77 µM) |
